Measured values published in patent US9376436B2, “2-(pyridin-2yl)-1, 7-diaza-spiro [4.4] nonane-6-one compound as voltage-gated sodium channels modulators” (CONVERGENCE PHARMACEUTICALS LIMITED, priority 2011, dated 2016).
Counter-ions that a name gives are not always drawn. Like-named read-outs stand apart in the source and are kept apart here.

Molecular target: T1, hNaV1.7 (Homo sapiens, UniProt Q15858)
T1 construct: expressed in transfected cells; host or cells: HEK293
Test: QPatch NaV1.7 assay (whole-cell patch clamp, QPatch16x)
Format: cell-based
Conditions: HEK293-hNaV1.7 cells
In short: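 HEK293 cells expressing hNaV1.7 recorded by automated whole-cell patch clamp (CsF internal, pH 7.3). Peak currents from 20 ms steps to 0 mV measured at holding potentials of −90 mV and V1/2 SSI; four-point cumulative concentrations, 120 s each, Hill fits gave pIC50 at each potential.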

[1] = holding voltage V1/2 SSI (half of channels inactivated), read-out: QP Nav1.7 SSI vhalf pIC50 (converted)
[2] = holding voltage −90 mV (most channels closed), read-out: QP Nav1.7 −90 mV pIC50 (converted)

T1 sequence (Q15858 whole entry): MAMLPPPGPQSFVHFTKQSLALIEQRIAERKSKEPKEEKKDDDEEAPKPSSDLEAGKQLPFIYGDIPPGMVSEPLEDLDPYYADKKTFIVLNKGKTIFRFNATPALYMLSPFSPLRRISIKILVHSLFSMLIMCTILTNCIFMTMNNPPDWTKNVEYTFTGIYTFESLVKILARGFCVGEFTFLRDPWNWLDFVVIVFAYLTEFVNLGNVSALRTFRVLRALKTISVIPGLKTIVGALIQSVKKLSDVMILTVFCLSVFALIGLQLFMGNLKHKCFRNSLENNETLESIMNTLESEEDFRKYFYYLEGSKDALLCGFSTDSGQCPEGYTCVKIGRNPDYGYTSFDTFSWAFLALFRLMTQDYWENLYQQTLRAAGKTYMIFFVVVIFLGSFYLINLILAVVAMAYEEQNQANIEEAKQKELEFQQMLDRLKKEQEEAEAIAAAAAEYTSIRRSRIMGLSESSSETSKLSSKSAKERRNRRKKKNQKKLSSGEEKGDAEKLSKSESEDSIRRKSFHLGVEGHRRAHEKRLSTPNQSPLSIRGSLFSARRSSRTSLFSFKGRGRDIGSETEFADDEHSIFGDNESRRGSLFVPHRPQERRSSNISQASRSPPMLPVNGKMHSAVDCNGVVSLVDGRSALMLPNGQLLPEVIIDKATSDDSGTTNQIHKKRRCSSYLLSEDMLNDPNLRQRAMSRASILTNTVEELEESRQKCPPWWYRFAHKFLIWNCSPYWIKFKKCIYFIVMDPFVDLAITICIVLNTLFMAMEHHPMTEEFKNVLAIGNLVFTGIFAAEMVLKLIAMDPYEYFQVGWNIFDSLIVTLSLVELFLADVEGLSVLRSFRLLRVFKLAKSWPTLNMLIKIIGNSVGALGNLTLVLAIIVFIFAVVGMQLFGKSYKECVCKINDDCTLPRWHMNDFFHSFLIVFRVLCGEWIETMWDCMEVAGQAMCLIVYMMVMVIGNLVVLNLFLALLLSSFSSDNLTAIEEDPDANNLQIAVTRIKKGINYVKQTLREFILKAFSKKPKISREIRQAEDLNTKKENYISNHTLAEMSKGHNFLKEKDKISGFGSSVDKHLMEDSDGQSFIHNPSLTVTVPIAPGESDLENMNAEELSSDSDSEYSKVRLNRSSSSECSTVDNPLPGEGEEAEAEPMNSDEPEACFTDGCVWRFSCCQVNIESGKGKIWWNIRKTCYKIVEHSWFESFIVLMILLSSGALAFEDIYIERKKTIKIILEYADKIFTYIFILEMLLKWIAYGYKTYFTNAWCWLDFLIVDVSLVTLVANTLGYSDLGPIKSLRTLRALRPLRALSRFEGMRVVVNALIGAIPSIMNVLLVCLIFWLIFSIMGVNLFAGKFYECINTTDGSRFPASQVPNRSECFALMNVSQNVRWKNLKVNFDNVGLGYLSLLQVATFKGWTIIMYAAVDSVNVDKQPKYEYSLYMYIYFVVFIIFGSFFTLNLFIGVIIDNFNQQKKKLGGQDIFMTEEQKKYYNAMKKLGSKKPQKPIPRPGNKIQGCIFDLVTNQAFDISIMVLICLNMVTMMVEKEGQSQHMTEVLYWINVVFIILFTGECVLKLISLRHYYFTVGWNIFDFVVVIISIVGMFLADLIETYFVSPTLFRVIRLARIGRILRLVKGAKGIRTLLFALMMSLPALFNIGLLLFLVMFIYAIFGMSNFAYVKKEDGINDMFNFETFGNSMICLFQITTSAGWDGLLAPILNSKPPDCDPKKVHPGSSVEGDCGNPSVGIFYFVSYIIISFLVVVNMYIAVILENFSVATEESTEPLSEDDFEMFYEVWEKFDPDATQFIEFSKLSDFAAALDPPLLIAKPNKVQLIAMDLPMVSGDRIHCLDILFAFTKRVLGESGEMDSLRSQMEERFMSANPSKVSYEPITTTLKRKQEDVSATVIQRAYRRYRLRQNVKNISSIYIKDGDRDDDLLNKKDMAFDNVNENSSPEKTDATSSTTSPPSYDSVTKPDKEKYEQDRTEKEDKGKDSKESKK

IC50 [1]	IC50 [2]	Structure (SMILES)
100 µM	10000 µM	CCOc1ccc(-c2ccnc([C@H]3CC[C@@]4(CCN(C)C4=O)N3)c2)cc1OCC [Example 190, (2R,5S)-2-[4-(3,4-Diethoxyphenyl)-2-pyridyl]-7-methyl-1,7-diazaspiro[4.4]nonan-6-one hydrochloride]
25.1 µM	398 µM	CN1CC[C@@]2(CC[C@H](c3cc(-c4cc(-c5cnn(C)c5)ccc4F)ccn3)N2)C1=O [Example 191, (2R,5S)-2-[4-[2-Fluoro-5-(1-methylpyrazol-4-yl)phenyl]-2-pyridyl]-7-methyl-1,7-diazaspiro[4.4]nonan-6-one hydrochloride]
1000 µM		CN1CC[C@@]2(CC[C@H](c3cc(-c4cc(-c5ccnn5C)ccc4F)ccn3)N2)C1=O [Example 192, (2R,5S)-2-[4-[2-Fluoro-5-(2-methylpyrazol-3-yl)phenyl]-2-pyridyl]-7-methyl-1,7-diazaspiro[4.4]nonan-6-one hydrochloride]
50.1 µM	5010 µM	Cc1ccnn1-c1ccc(F)c(-c2ccnc([C@H]3CC[C@@]4(CCN(C)C4=O)N3)c2)c1 [Example 193, (2R,5S)-2-[4-[2-Fluoro-5-(5-methylpyrazol-1-yl)phenyl]-2-pyridyl]-7-methyl-1,7-diazaspiro[4.4]nonan-6-one hydrochloride]
5.01 µM	100 µM	COc1ccc(F)c(-c2cc(C)nc([C@H]3CC[C@@]4(CCN(C)C4=O)N3)c2)c1 [Example 195, (2R,5S)-2-[4-(2-Fluoro-5-methoxy-phenyl)-6-methyl-2-pyridyl]-7-methyl-1,7-diazaspiro[4.4]nonan-6-one hydrochloride]
0.1 µM	1.58 µM	CCCOc1ccc(F)c(-c2cc(C)nc([C@H]3CC[C@@]4(CCN(C)C4=O)N3)c2)c1 [Example 196, (2R,5S)-2-[4-(2-Fluoro-5-propoxy-phenyl)-6-methyl-2-pyridyl]-7-methyl-1,7-diazaspiro[4.4]nonan-6-one hydrochloride]
5.01 µM	50.1 µM	CCOc1cc(F)cc(-c2cc(C)nc([C@H]3CC[C@@]4(CCN(C)C4=O)N3)c2)c1 [Example 197, (2R,5S)-2-[4-(3-Ethoxy-5-fluoro-phenyl)-6-methyl-2-pyridyl]-7-methyl-1,7-diazaspiro[4.4]nonan-6-one hydrochloride]
5.01 µM	63.1 µM	Cc1cc(-c2cc(OC(C)C)ccc2F)cc([C@H]2CC[C@@]3(CCN(C)C3=O)N2)n1 [Example 198, (2R,5S)-2-[4-(2-Fluoro-5-isopropoxy-phenyl)-6-methyl-2-pyridyl]-7-methyl-1,7-diazaspiro[4.4]nonan-6-one hydrochloride]
25.1 µM	158 µM	CCOc1cccc(-c2cc(C)nc([C@H]3CC[C@@]4(CCN(C)C4=O)N3)c2)c1F [Example 199, (2R,5S)-2-[4-(3-Ethoxy-2-fluoro-phenyl)-6-methyl-2-pyridyl]-7-methyl-1,7-diazaspiro[4.4]nonan-6-one hydrochloride]
2 µM	31.6 µM	Cc1cc(-c2cc(OC(F)(F)F)ccc2F)cc([C@H]2CC[C@@]3(CCN(C)C3=O)N2)n1 [Example 200, (2R,5S)-2-[4-[2-Fluoro-5-(trifluoromethoxy)phenyl]-6-methyl-2-pyridyl]-7-methyl-1,7-diazaspiro[4.4]nonan-6-one hydrochloride]
0.126 µM	5.01 µM	CCCOc1ccc(F)c(-c2cc(C)nc([C@@H]3CC[C@]4(CCN(C)C4=O)N3)c2)c1 [Example 201, (2S,5R)-2-[4-(2-Fluoro-5-propoxy-phenyl)-6-methyl-2-pyridyl]-7-methyl-1,7-diazaspiro[4.4]nonan-6-one hydrochloride]
3.16 µM	31.6 µM	CCOc1cc(-c2cc(C)nc([C@H]3CC[C@@]4(CCN(C)C4=O)N3)c2)c(F)cc1C [Example 202, (2R,5S)-2-[4-(5-Ethoxy-2-fluoro-4-methyl-phenyl)-6-methyl-2-pyridyl]-7-methyl-1,7-diazaspiro[4.4]nonan-6-one hydrochloride]
251 µM	2000 µM	Cc1cc(-c2cc(N3CCCC3=O)ccc2F)cc([C@H]2CC[C@@]3(CCN(C)C3=O)N2)n1 [Example 203, (2R,5S)-2-[4-[2-Fluoro-5-(2-oxopyrrolidin-1-yl)phenyl]-6-methyl-2-pyridyl]-7-methyl-1,7-diazaspiro[4.4]nonan-6-one hydrochloride]
5.01 µM	31.6 µM	CCc1ccc(F)c(-c2cc(C)nc([C@H]3CC[C@@]4(CCN(C)C4=O)N3)c2)c1 [Example 204, (2R,5S)-2-[4-(5-Ethyl-2-fluoro-phenyl)-6-methyl-2-pyridyl]-7-methyl-1,7-diazaspiro[4.4]nonan-6-one hydrochloride]
6.31 µM	63.1 µM	CCc1cccc(-c2cc(C)nc([C@H]3CC[C@@]4(CCN(C)C4=O)N3)c2)c1 [Example 205, (2R,5S)-2-[4-(3-Ethylphenyl)-6-methyl-2-pyridyl]-7-methyl-1,7-diazaspiro[4.4]nonan-6-one hydrochloride]
10 µM	63.1 µM	CCc1cccc(-c2cc(C)nc([C@H]3CC[C@@]4(CCN(C)C4=O)N3)c2)c1F [Example 206, (2R,5S)-2-[4-(3-Ethyl-2-fluoro-phenyl)-6-methyl-2-pyridyl]-7-methyl-1,7-diazaspiro[4.4]nonan-6-one hydrochloride]
6.31 µM	79.4 µM	CCOc1cccc(-c2cc(C)nc([C@H]3CC[C@@]4(CCN(C)C4=O)N3)c2)c1 [Example 207, (2R,5S)-2-[4-(3-Ethoxyphenyl)-6-methyl-2-pyridyl]-7-methyl-1,7-diazaspiro[4.4]nonan-6-one hydrochloride]
100 µM	158 µM	Cc1cc(-c2cc3c(cc2F)CCO3)cc([C@@H]2CC[C@]3(CCN(C)C3=O)N2)n1 [Example 208, (2S,5R)-2-[4-(5-Fluoro-2,3-dihydrobenzofuran-6-yl)-6-methyl-2-pyridyl]-7-methyl-1,7-diazaspiro[4.4]nonan-6-one hydrochloride]
3.16 µM	25.1 µM	Cc1cc(-c2ccc(OC(C)C)nc2)cc([C@@H]2CC[C@]3(CCN(C)C3=O)N2)n1 [Example 209, (2S,5R)-2-[4-(6-Isopropoxy-3-pyridyl)-6-methyl-2-pyridyl]-7-methyl-1,7-diazaspiro[4.4]nonan-6-one hydrochloride]
398 µM		CCS(=O)(=O)c1ccc(-c2cc(C)nc([C@@H]3CC[C@]4(CCN(C)C4=O)N3)c2)cc1 [Example 210, (2S,5R)-2-[4-(4-Ethylsulfonylphenyl)-6-methyl-2-pyridyl]-7-methyl-1,7-diazaspiro[4.4]nonan-6-one hydrochloride]
25.1 µM	251 µM	Cc1cc(-c2cc(F)ccc2F)cc([C@H]2CC[C@@]3(CCN(C)C3=O)N2)n1 [Example 211, (2R,5S)-2-[4-(2,5-Difluorophenyl)-6-methyl-2-pyridyl]-7-methyl-1,7-diazaspiro[4.4]nonan-6-one hydrochloride]
5.01 µM	63.1 µM	CCOc1ccc(F)c(-c2ccnc([C@H]3CC[C@]4(CCN(C)C4=O)N3)c2C)c1 [Example 212, (2R,5R)-2-[4-(5-Ethoxy-2-fluoro-phenyl)-3-methyl-2-pyridyl]-7-methyl-1,7-diazaspiro[4.4]nonan-6-one hydrochloride]
6.31 µM	63.1 µM	CCOc1ccc(F)c(-c2ccnc([C@@H]3CC[C@]4(CCN(C)C4=O)N3)c2C)c1 [Example 213, (2S,5R)-2-[4-(5-Ethoxy-2-fluoro-phenyl)-3-methyl-2-pyridyl]-7-methyl-1,7-diazaspiro[4.4]nonan-6-one hydrochloride]
3.98 µM	31.6 µM	CCOc1ccc(F)c(-c2ccnc([C@@H]3CC[C@@]4(CCN(C)C4=O)N3)c2C)c1 [Example 214, (2S,5S)-2-[4-(5-Ethoxy-2-fluoro-phenyl)-3-methyl-2-pyridyl]-7-methyl-1,7-diazaspiro[4.4]nonan-6-one hydrochloride]
12.6 µM	126 µM	CCOc1ccc(F)c(-c2ccnc([C@H]3CC[C@@]4(CCN(C)C4=O)N3)c2C)c1 [Example 215, (2R,5S)-2-[4-(5-Ethoxy-2-fluoro-phenyl)-3-methyl-2-pyridyl]-7-methyl-1,7-diazaspiro[4.4]nonan-6-one hydrochloride]
5.01 µM	31.6 µM	CCOc1ccc(F)c(-c2ccnc([C@@H]3CC[C@@]4(CC(C)(C)NC4=O)N3)c2)c1 [Example 216, (2S,5S)-2-[4-(5-Ethoxy-2-fluoro-phenyl)-2-pyridyl]-8,8-dimethyl-1,7-diazaspiro[4.4]nonan-6-one hydrochloride]
3.98 µM	25.1 µM	CCOc1ccc(F)c(-c2ccnc([C@H]3CC[C@@]4(CC(C)(C)NC4=O)N3)c2)c1 [Example 217, (2R,5S)-2-[4-(5-Ethoxy-2-fluoro-phenyl)-2-pyridyl]-8,8-dimethyl-1,7-diazaspiro[4.4]nonan-6-one hydrochloride]
0.501 µM	6.31 µM	CCOc1ccc(F)c(-c2ccnc([C@H]3CC[C@]4(CC(C)(C)NC4=O)N3)c2)c1 [Example 218, (2R,5R)-2-[4-(5-Ethoxy-2-fluoro-phenyl)-2-pyridyl]-8,8-dimethyl-1,7-diazaspiro[4.4]nonan-6-one hydrochloride]
7.94 µM	50.1 µM	CCOc1ccc(F)c(-c2ccnc([C@@H]3CC[C@]4(CC(C)(C)NC4=O)N3)c2)c1 [Example 219, (2S,5R)-2-[4-(5-Ethoxy-2-fluoro-phenyl)-2-pyridyl]-8,8-dimethyl-1,7-diazaspiro[4.4]nonan-6-one hydrochloride]

Structure (SMILES)	IC50 [1]	IC50 [2]
CC(C)COc1cc(-c2ccnc([C@H]3CC[C@@]4(CCN(C)C4=O)N3)c2)ccc1F [Example 194, (2R,5S)-2-[4-(4-Fluoro-3-isobutoxy-phenyl)-2-pyridyl]-7-methyl-1,7-diazaspiro[4.4]nonan-6-one hydrochloride]	1 µM	15.8 µM
